The results in this text go back to ChEMBL document CHEMBL4414613, “Antibacterial 5α-Spirostane Saponins from the Fruit of Cordyline manners-suttoniae” (J Nat Prod, 2019).

The test system of assay [1] is HaCaT. Nature of the assay: Cytotoxicity against human HaCaT cells assessed as reduction in cell viability incubated for 4 days by CellTiter 96 aqueous one solution assay. Type of assay: cell-based. The note with it: 96 h.
For assay [2], the system named is NHDF. Put plainly: Cytotoxicity against human HDF cells assessed as reduction in cell viability incubated for 7 days by CellTiter 96 aqueous one solution assay. Type of assay: functional, cell-based. The note with it: 168 h.
In assay [3] the test system is Pseudomonas aeruginosa. Nature of the assay: Bactericidal activity against Pseudomonas aeruginosa ATCC 10145 at 90 uM incubated for 24 hrs by microdilution assay. In kind it is functional, organism-based.
For assay [4], the system named is Klebsiella pneumoniae. Nature of the assay: Bactericidal activity against Klebsiella pneumoniae ATCC 13883 at 90 uM incubated for 24 hrs by microdilution assay. In kind it is functional, organism-based.
In assay [5] the test system is Enterococcus faecium. Nature of the assay: Bactericidal activity against Enterococcus faecium C15 at 90 uM incubated for 24 hrs by microdilution assay. Type of assay: functional, organism-based.
Assay [6] concerns Klebsiella pneumoniae. Nature of the assay: Antibacterial activity against Klebsiella pneumoniae ATCC 13883 at 90 uM incubated for 24 hrs by microdilution assay. In kind it is functional, organism-based.
For assay [7], the system named is Staphylococcus aureus. Put plainly: Antibacterial activity against Staphylococcus aureus ATCC 29247 at 90 uM incubated for 24 hrs by microdilution assay. Type of assay: functional, organism-based.
Assay [8] deals with Staphylococcus aureus. Nature of the assay: Antibacterial activity against Staphylococcus aureus ATCC 25923 at 90 uM incubated for 24 hrs by microdilution assay. Type of assay: functional, organism-based.
Assay [9] deals with Klebsiella aerogenes. Put plainly: Bactericidal activity against Enterobacter aerogenes ATCC 13048 at 90 uM incubated for 24 hrs by microdilution assay. In kind it is functional.
Assay [10] has as its system Enterococcus faecium. Nature of the assay: Antibacterial activity against Enterococcus faecium C15 incubated for 24 hrs by microdilution assay. In kind it is functional.
Assay [11] deals with Acinetobacter baumannii. Nature of the assay: Bactericidal activity against Acinetobacter baumannii ATCC 17978 at 90 uM incubated for 24 hrs by microdilution assay. Type of assay: functional, organism-based.
The test system of assay [12] is Enterobacter cloacae subsp. cloacae. Nature of the assay: Antibacterial activity against Enterobacter cloacae ATCC 13047 at 90 uM incubated for 24 hrs by microdilution assay. In kind it is functional.
The test system of assay [13] is Pseudomonas aeruginosa. Nature of the assay: Antibacterial activity against Pseudomonas aeruginosa ATCC 10145 at 90 uM incubated for 24 hrs by microdilution assay. Type of assay: functional, organism-based.
The subject of assay [14] is Klebsiella pneumoniae. Put plainly: Bactericidal activity against Klebsiella pneumoniae ATCC 12657 at 90 uM incubated for 24 hrs by microdilution assay. Type of assay: functional, organism-based.
The subject of assay [15] is Staphylococcus aureus. Nature of the assay: Bactericidal activity against Staphylococcus aureus ATCC 29247 at 90 uM incubated for 24 hrs by microdilution assay. Type of assay: functional, organism-based.
The subject of assay [16] is Klebsiella aerogenes. Put plainly: Antibacterial activity against Enterobacter aerogenes ATCC 13048 at 90 uM incubated for 24 hrs by microdilution assay. Type of assay: functional.
Assay [17] relates to Acinetobacter baumannii. Put plainly: Antibacterial activity against Acinetobacter baumannii ATCC 17978 at 90 uM incubated for 24 hrs by microdilution assay. Type of assay: functional, organism-based.
Assay [18] relates to Staphylococcus aureus. Nature of the assay: Bactericidal activity against Staphylococcus aureus ATCC 25923 at 90 uM incubated for 24 hrs by microdilution assay. Type of assay: functional, organism-based.
Assay [19] concerns Klebsiella pneumoniae. Put plainly: Antibacterial activity against Klebsiella pneumoniae ATCC 12657 at 90 uM incubated for 24 hrs by microdilution assay. Type of assay: functional, organism-based.
In assay [20] the test system is Enterococcus faecium. Nature of the assay: Bactericidal activity against Enterococcus faecium ATCC 35667 at 90 uM incubated for 24 hrs by microdilution assay. Type of assay: functional, organism-based.
The subject of assay [21] is Acinetobacter baumannii. Nature of the assay: Antibacterial activity against Acinetobacter baumannii ATCC 19606 at 90 uM incubated for 24 hrs by microdilution assay. Type of assay: functional, organism-based. To be noted: ATCC 19606 = CIP 70.34 = JCM 6841.
The nature of assay [22]: Selectivity ratio of IC50 for human HaCaT cells to IC50 for human HDF cells by CellTiter 96 aqueous one solution assay.
Assay [23] relates to Pseudomonas aeruginosa. Nature of the assay: Bactericidal activity against Pseudomonas aeruginosa ATCC 49189 at 90 uM incubated for 24 hrs by microdilution assay. In kind it is functional, organism-based.
For assay [24], the system named is Pseudomonas aeruginosa. Put plainly: Antibacterial activity against Pseudomonas aeruginosa ATCC 49189 at 90 uM incubated for 24 hrs by microdilution assay. Type of assay: functional, organism-based.
Assay [25] relates to Enterococcus faecium. Nature of the assay: Antibacterial activity against Enterococcus faecium ATCC 35667 at 90 uM incubated for 24 hrs by microdilution assay. Type of assay: functional, organism-based.
Assay [26] relates to Acinetobacter baumannii. Put plainly: Bactericidal activity against Acinetobacter baumannii ATCC 19606 at 90 uM incubated for 24 hrs by microdilution assay. Type of assay: functional, organism-based. The note with it: ATCC 19606 = CIP 70.34 = JCM 6841.
Assay [27] relates to Enterobacter cloacae subsp. cloacae. Put plainly: Bactericidal activity against Enterobacter cloacae ATCC 13047 at 90 uM incubated for 24 hrs by microdilution assay. Type of assay: functional.
Assay [28] relates to Staphylococcus aureus. Nature of the assay: Antibacterial activity against Staphylococcus aureus ATCC 25923 incubated for 24 hrs by microdilution assay. In kind it is functional.
Assay [29] deals with Enterococcus faecium. Put plainly: Antibacterial activity against Enterococcus faecium ATCC 35667 incubated for 24 hrs by microdilution assay. In kind it is functional.
Assay [30] concerns Staphylococcus aureus. Put plainly: Antibacterial activity against Staphylococcus aureus ATCC 29247 incubated for 24 hrs by microdilution assay. Type of assay: functional.

pIC50: −log10 of the molar value. Converted amounts (≈) assume the structure as drawn. The source made the active and inactive calls. No cut-off for these calls is given here.

Take `COc1cccc2c1C(=O)c1c(O)c3c(c(O)c1C2=O)C[C@@](O)(C(=O)CO)C[C@@H]3O[C@H]1C[C@H](N)[C@H](O)[C@H](C)O1` [DOXORUBICIN]: the pIC50 in assay [1] was 8.00; in assay [2], 7.96.

Take `C=C1CC[C@]2(OC1)O[C@H]1C[C@H]3[C@@H]4CC[C@H]5[C@H](O)[C@@H](O)C[C@@H](O[C@@H]6O[C@H](C)[C@H](O)[C@H](O)[C@H]6O)[C@]5(C)[C@H]4CC[C@]3(C)[C@H]1[C@@H]2C`: the outcome in assay [3], in assay [4], in assay [5], in [6], in assay [7] and in assay [8] was inactive. Further, the result in assay [9], in assay [11], in assay [12], in assay [13], in assay [14] and in assay [15] was inactive. The result in assay [16], in [17], in assay [18], in assay [19], in assay [20] and in assay [21] was inactive. Also, the outcome in assay [23], in assay [24], in [25], in assay [26] and in [27] was inactive. Besides, the figures for the pIC50 in assay [1] and in assay [2] were 4.38 and 5.05, respectively. Further, in [10], the MIC75 was 84.3 µM (≈ 50 µg/mL). In addition, the “Ratio IC50” value in [22] is given as 3 - 11.

As for `C[C@@H]1CC[C@]2(OC1)O[C@H]1C[C@H]3[C@@H]4CC[C@H]5[C@H](O)[C@H](O)C[C@@H](O[C@@H]6O[C@H](C)[C@H](O)[C@H](O)[C@H]6O)[C@]5(C)[C@H]4CC[C@]3(C)[C@H]1[C@@H]2C`, the outcome in assay [3], in [4], in assay [5], in assay [6], in assay [7] and in assay [8] was inactive. The outcome in [9], in [11], in [12], in assay [13], in assay [14] and in assay [15] was inactive. For the same compound, the result in assay [16], in [17], in [18], in assay [19], in assay [20] and in assay [21] was inactive. Further, the result in assay [23], in [24], in assay [25], in assay [26] and in assay [27] was inactive. Also, the negative-log IC50 (pIC50) was 4.13 in [1] and 5.18 in assay [2]. In [10], this compound displayed an MIC75 of 84.1 µM (≈ 50 µg/mL). For the same compound, the “Ratio IC50” value in assay [22] is given as 3 - 11.

Turning to `C=C1CC[C@]2(OC1)O[C@H]1C[C@H]3[C@@H]4CC[C@H]5[C@H](O)[C@H](O)C[C@@H](O[C@@H]6O[C@H](C)[C@H](O)[C@H](O)[C@H]6O)[C@]5(C)[C@H]4CC[C@]3(C)[C@H]1[C@@H]2C`, the outcome in [3], in assay [4], in [5], in [6], in [7] and in assay [8] was inactive. In addition, the result in assay [9], in assay [11], in [12], in assay [13], in assay [14] and in assay [15] was inactive. Besides, the result in assay [16], in assay [17], in [18], in [19], in assay [20] and in assay [21] was inactive. In addition, the outcome in assay [23], in assay [24], in assay [25], in [26] and in assay [27] was inactive. Besides, the pIC50 is 4.32 in assay [1] and 4.78 in [2]. In addition, in assay [10], the MIC75 is 84.3 µM (≈ 50 µg/mL). Moreover, in [22], the “Ratio IC50” value is 3 - 11.

`O=C(N[C@H](CO)[C@H](O)c1ccc([N+](=O)[O-])cc1)C(Cl)Cl` [CHLORAMPHENICOL]: the MIC75 in assay [28], in assay [29], in assay [10] and in [30] was 9.7 µM (≈ 3.13 µg/mL) throughout. Besides, the outcome in assay [5], in assay [15], in [18] and in assay [20] was inactive.

As for `C[C@@H]1CC[C@]2(OC1)O[C@H]1C[C@H]3[C@@H]4CC[C@H]5[C@H](O)[C@@H](O)C[C@@H](O[C@@H]6O[C@H](C)[C@H](O)[C@H](O)[C@H]6O)[C@]5(C)[C@H]4CC[C@]3(C)[C@H]1[C@@H]2C`, the result in assay [3], in [4], in assay [5], in [6], in assay [7] and in [8] was inactive. The outcome in assay [9], in [11], in assay [12], in assay [13], in assay [14] and in assay [15] was inactive. The outcome in assay [16], in assay [17], in assay [18], in assay [19], in [20] and in assay [21] was inactive. The outcome in [23], in assay [24], in [26] and in assay [27] was inactive. The MIC75 in assay [29] and in assay [10] was 84.1 µM (≈ 50 µg/mL) throughout. Besides, the pIC50 is 4.44 in [1] and 5.07 in assay [2]. For the same compound, the “Ratio IC50” value in assay [22] was 3 - 11.
